Laboratory results taken from patent US11691962B2 (eXIthera Pharmaceuticals, Inc., priority 2018, dated 2023).

Experiments:
Format in all cases: biochemical
Factor XIa = Factor XIa (Homo sapiens (Human), UniProt P03951); assay: Factor XIa enzyme inhibition assay (dose response, fluorogenic AMC substrate); settings: read-out: hFXIa IC50
Outline: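 Human FXIa at 0.25 nM final with 50 μM final PyroGlu-Pro-Arg-AMC in 20 mM Hepes pH 7.4, 150 mM NaCl, 0.02% Tween 20. Two-fold serial compound dilutions; fluorescence read every minute for 30 min at 30° C. IC50 from a four-parameter Hill fit.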

Thrombin = Thrombin (Homo sapiens (Human), UniProt P00734); assay: Dose response assay for protease inhibitors: thrombin; settings: selectivity, thrombin over Factor XIa
Outline: (§1)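 Fluorogenic AMC-peptide cleavage in 20 mM Hepes pH 7.4, 150 mM NaCl, 0.02% Tween 20; 100 μM stock substrate dilution (Glp-Pro-Arg-AMC for thrombin/trypsin; Pro-Phe-Arg-AMC or Boc-Leu-Gly-Arg-AMC for Factor Xa). Enzyme diluted to 0.5 nM, added last to two-fold compound series; kinetic read at 30° C, 30 min (Factor Xa 60 min); IC50 fitted.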

Trypsin = assay: Dose response assay for protease inhibitors: trypsin; settings: selectivity, trypsin over Factor XIa
Outline: as §1

Factor Xa = Factor Xa (Homo sapiens (Human), UniProt P00742); assay: Dose response assay for protease inhibitors: Factor Xa; settings: selectivity, Factor Xa over Factor XIa
Outline: as §1

Sequence of Factor Xa (P00742 235-488): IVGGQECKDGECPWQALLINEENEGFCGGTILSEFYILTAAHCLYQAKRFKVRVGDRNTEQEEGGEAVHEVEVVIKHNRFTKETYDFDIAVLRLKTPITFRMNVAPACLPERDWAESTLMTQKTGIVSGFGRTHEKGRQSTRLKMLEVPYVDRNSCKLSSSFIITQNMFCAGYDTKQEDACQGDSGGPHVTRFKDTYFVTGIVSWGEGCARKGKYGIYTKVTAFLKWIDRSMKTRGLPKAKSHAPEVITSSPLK
Sequence of Factor Xa (P00742 41-179 partner): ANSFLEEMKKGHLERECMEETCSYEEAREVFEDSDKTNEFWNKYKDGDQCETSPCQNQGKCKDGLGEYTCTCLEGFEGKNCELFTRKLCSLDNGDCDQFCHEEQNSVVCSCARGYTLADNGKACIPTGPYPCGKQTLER
Sequence of Factor XIa (P03951 388-625): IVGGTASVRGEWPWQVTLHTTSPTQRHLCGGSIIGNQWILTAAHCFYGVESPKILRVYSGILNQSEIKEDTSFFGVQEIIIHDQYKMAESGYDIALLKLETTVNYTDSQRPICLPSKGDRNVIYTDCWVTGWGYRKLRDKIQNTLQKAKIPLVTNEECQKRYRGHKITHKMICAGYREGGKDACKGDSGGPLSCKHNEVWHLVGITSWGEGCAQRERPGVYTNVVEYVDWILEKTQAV
Sequence of Factor XIa (P03951 19-387 partner): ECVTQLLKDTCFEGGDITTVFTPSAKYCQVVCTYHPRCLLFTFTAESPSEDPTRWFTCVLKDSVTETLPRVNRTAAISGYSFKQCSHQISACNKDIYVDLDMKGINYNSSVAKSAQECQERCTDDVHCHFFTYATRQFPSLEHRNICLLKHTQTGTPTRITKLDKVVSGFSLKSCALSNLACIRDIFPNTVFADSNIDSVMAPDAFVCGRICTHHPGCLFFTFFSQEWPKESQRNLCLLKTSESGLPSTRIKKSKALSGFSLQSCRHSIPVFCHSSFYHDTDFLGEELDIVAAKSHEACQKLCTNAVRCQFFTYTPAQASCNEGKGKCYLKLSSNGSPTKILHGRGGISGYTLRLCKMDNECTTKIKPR

SMILES | IC50 (Factor XIa) [nM] | Ratio: Thrombin/FXIa (Thrombin) | Ratio: Trypsin/FXIa (Trypsin) | Ratio: FXa/FXIa (Factor Xa)
CC[C@@H](NC(=O)N1C(=O)[C@H](Cc2ccnc(N)c2)[C@H]1C(=O)N(C)c1ccn(C)n1)c1ccc(C)c(C)c1 [Compound 1-127, (2S,3R)-3-((2-aminopyridin-4-yl)methyl)-N2-(1-methyl-1H-pyrazol-3-yl)-N1-((R)-1-(3,4-dimethylphenyl)propyl)-N2-methyl-4-oxoazetidine-1,2-dicarboxamide] | < 10 | H (“H” indicates 101-1000) | G (“G” indicates 1-100) | H (“H” indicates 101-1000)
CC[C@@H](NC(=O)N1C(=O)[C@H](Cc2ccnc(N)c2)[C@H]1C(=O)N(C)c1cn(C)cn1)C1CCCCC1 [Compound 1-71, (2S,3R)-3-((2-aminopyridin-4-yl)methyl)-N2-(1-methyl-1H-imidazol-4-yl)-N1-((R)-1-cyclohexylpropyl)-N2-methyl-4-oxoazetidine-1,2-dicarboxamide] | < 10 | G (“G” indicates 1-100) | G (“G” indicates 1-100) | I (“I” indicates > 500)
CC[C@@H](NC(=O)N1C(=O)[C@H](Cc2ccnc(N)c2)[C@H]1C(=O)N(C)c1nccn1C)c1ccc(C)cc1 [Compound 1-87, (2S,3R)-3-((2-aminopyridin-4-yl)methyl)-N2-(1-methyl-1H-imidazol-2-yl)-N1-((R)-1-(4-methylphenyl)propyl)-N2-methyl-4-oxoazetidine-1,2-dicarboxamide] | < 10 | H (“H” indicates 101-1000) | G (“G” indicates 1-100) | I (“I” indicates > 500)
CC[C@@H](NC(=O)N1C(=O)[C@H](Cc2cc(C)nc(N)c2)[C@H]1C(=O)N(C)c1nccn1C)c1ccc(C)c(C)c1 [Compound 1-109, (2S,3R)-3-((2-amino-6-methylpyridin-4-yl)methyl)-N2-(1-methyl-1H-imidazol-2-yl)-N1-((R)-1-(3,4-dimethylphenyl)propyl)-N2-methyl-4-oxoazetidine-1,2-dicarboxamide] | < 10 | H (“H” indicates 101-1000) | G (“G” indicates 1-100) | H (“H” indicates 101-1000)
CC[C@@H](NC(=O)N1C(=O)[C@H](Cc2ccnc(N)c2)[C@H]1C(=O)N(C)c1cnn(C)c1)C1CCCCC1 [Compound 1-69, (2S,3R)-3-((2-aminopyridin-4-yl)methyl)-N2-(1-methyl-1H-pyrazol-4-yl)-N1-((R)-1-cyclohexylpropyl)-N2-methyl-4-oxoazetidine-1,2-dicarboxamide] | 10 to 100 | G (“G” indicates 1-100) | G (“G” indicates 1-100) | H (“H” indicates 101-1000)
